{"source": "patent US20180087086A1", "about": "“CELL EGRESS AND INVASION INHIBITORS AND THEIR USE AS ANTIPARASITICAL AGENTS” (THE JOHNS HOPKINS UNIVERSITY, priority 2015, published 2018)", "key": {"[1]": {"tested_on": "P. falciparum sporozoites", "test": "dose-dependent killing of P. falciparum sporozoites", "format": "cell-based", "settings": "Plasmodium falciparum", "excerpt": "Observed phenotype at lower concentration pinpoints towards an on-target effect of the compounds."}, "[2]": {"target": "TRAP interaction with aldolase (Plasmodium falciparum, UniProt Q7KQL9)", "sequence (Q7KQL9 whole entry)": "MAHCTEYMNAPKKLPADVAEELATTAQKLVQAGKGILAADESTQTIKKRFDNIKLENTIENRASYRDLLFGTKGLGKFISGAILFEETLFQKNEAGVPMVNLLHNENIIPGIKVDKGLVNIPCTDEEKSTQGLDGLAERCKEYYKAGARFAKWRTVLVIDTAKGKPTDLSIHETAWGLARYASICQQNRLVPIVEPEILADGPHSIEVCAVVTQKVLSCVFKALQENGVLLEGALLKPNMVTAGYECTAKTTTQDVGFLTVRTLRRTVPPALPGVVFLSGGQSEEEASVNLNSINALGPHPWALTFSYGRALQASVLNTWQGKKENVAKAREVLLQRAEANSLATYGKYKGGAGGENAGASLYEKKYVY", "sequence (P16893 516-559, further chain)": "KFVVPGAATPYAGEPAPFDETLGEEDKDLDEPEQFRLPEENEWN", "test": "TRAP-aldolase interaction via SPR", "format": "binding, P. falciparum", "settings": "as a function of compound concentration", "method": "(§1) FIG. 5A (Top) TRAP and FIG. 5B (Bottom) MTRAP show the interaction with aldolase in the presence of compounds 4 and 18 as a function of compound concentration as measured via SPR.\n(§2) The dissociation constant for PfAldolase and PfTRAP, MTRAP and PvTRAP was measured by determining the binding response at various concentrations of aldolase passed over a chip with bound, biotinylated peptides (FIG. 3). Dissociation constants were in the mid-nanomolar range and matched with values previously reported in the literature (Boucher LE and Bosch J, J. Mol Recognit. 2013 Oct. 26(10): 496-500).\n(§3) (FIG. 5A) TRAP and (FIG. 5B) MTRAP interaction with aldolase in the presence of compounds 4 and 18 is illustrated as a function of compound concentration as measured via SPR."}, "sporozoites": {"tested_on": "sporozoites", "test": "sporozoite viability, propidium iodide exclusion assay", "format": "cell-based", "settings": "10 min at 18° C. then 15 min at 37° C., DMSO 85%, read-out: sporozoite viability (PI exclusion)", "method": "FIG. 12A-FIG. 12C is a series of bar charts that show results of sporozoite viability assays. […] The total number of sporozoites was determined from phase images and the number of non-viable sporozoites from the count of red fluorescing sporozoites.\nTo determine if the compounds' mode of action was by causing cell death, viability assays to look at compound effects were performed. In a first test of viability, a propidium iodide exclusion assay was used (FIG. 12A). The total number of sporozoites was determined from in phase imaging and the number of non-viable sporozoites from the count of red fluorescing sporozoites. […] 250 μM of compound 4 reduced viability to 79% while compound 18 indicated a protective effect with 93% viability."}, "Plasmodium parasite": {"tested_on": "Plasmodium parasite", "test": "cytocidal activity (assay not specified)", "format": "cell-based", "settings": "60 μM concentration", "excerpt": "As described herein, inferring from sequence identity between TRAP and CTRP, the Aldolase-CTRP complex is inhibited during the mosquito stage."}, "P. berghei sporozoites": {"tested_on": "P. berghei sporozoites", "test": "trail radius of gliding sporozoites (ImageJ)", "format": "cell-based", "settings": "62.5 μM; 130-150 trail radii; p-value <0.0001", "method": "The trail radius was measured using ImageJ and the statistical analyses to determine standard error mean and t-test were performed using GraphPad.\nThe gliding phenotype was altered to determine whether the compounds were having off-target effects. While quantifying the number of deposited trails, the trail diameter in the presence of compounds was altered. An altered trail diameter is more likely due to either a direct effect on the motor or an effect on sporozoite shape. The diameter of the circular trails deposited by the parasites in the DMSO control was measured and in the presence of three compounds at 62.5 μM (FIG. 8). This concentration was chosen because at higher concentrations, there were not enough sporozoite trails to measure to do a statistical analysis of the results. Using ImageJ, circles were fit to trails in multiple images to measure 130-150 trail radii. The average trail radii increased in the presence of compounds 4, 17, and 18 with a p-value <0.0001. The increase in average trail size was 6.3 microns, 2.5 microns, and 3.6, for compounds 4, 17, and 18, respectively."}, "[3]": {"target": "MTRAP interaction with aldolase (Plasmodium falciparum, UniProt Q7KQL9)", "sequence (Q7KQL9 whole entry)": "as the sequence (Q7KQL9 whole entry) above", "test": "MTRAP-aldolase interaction via SPR", "format": "binding, P. falciparum", "settings": "as a function of compound concentration", "method": "as §1, §2, §3"}, "rabbit aldolase": {"target": "T1, rabbit aldolase (Oryctolagus cuniculus, UniProt P00883)", "T1 sequence (P00883 1-364)": "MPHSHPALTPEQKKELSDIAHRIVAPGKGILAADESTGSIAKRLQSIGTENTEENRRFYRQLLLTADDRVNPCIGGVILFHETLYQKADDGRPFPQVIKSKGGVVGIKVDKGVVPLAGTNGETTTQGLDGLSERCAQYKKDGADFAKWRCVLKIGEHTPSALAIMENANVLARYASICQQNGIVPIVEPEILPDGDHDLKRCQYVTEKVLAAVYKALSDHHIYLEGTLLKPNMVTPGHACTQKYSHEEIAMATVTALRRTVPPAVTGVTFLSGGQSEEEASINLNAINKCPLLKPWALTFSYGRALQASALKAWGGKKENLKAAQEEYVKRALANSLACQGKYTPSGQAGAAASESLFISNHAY", "test": "aldolase enzyme activity assay, rabbit aldolase", "format": "biochemical", "settings": "surrogate for human aldolase", "excerpt": "(§4) FIGS. 16A-16D depict an aldolase enzyme activity assay. (A) Cartoon and surface representation of aldolase with TRAPpep bound (magenta, sticks) (PDB entry 2pc4), overlapping the F16BP (green, sticks) substrate binding site (PDB entry 4ald), via PyMOL. (B) Coupled enzyme assay to measure aldolase activity via NADH consumption as measured at 340 nm. (C) Concentration-dependent effect of compounds on PfAldolase inhibition in the presence of PbTRAP peptide. Activity is normalized to the PbTRAP control, which reduces Vmax to 50% of enzyme without PbTRAP. (D) PfAldolase activity in the presence of compounds to determine direct inhibition of enzyme by the compounds. Activity is normalized to the PfAldolase control measured Vmax. Standard error means plotted for activity assays and standard deviation for SPR data.\n(§5) Dose-Dependent Enzymatic Inhibition of Compounds on P. falciparum Aldolase and Rabbit Aldolase as a Surrogate for Human Aldolase."}, "[4]": {"target": "P. falciparum aldolase in the presence of TRAP (Plasmodium falciparum, UniProt Q7KQL9)", "sequence (Q7KQL9 whole entry)": "as the sequence (Q7KQL9 whole entry) above", "test": "aldolase enzyme activity assay, P. falciparum aldolase in the presence of TRAP", "format": "biochemical", "settings": "in the presence of TRAP and the compounds", "excerpt": "as §4, §5"}}}
{"smiles": "Brc1ccc(Nc2nc3ccccc3nc2Nc2ccc(Br)cc2)cc1", "note": "[Compound 4, N,N′-bis(4-bromophenyl)-2,3-quinoxalinediamine]", "values": [{"measurement": "EC90", "setting": "[1]", "result": "~125", "unit": "µM"}, {"measurement": "binding interaction of TRAP with aldolase in presence of compound", "setting": "[2]", "result": "Increased binding interaction"}, {"measurement": "viability at 250 µM", "setting": "sporozoites", "result": 79, "unit": "%"}, {"measurement": "cytocidal activity", "setting": "Plasmodium parasite", "result": "cytocidal activity"}, {"measurement": "increase in average trail size (trail radius) vs DMSO control", "setting": "P. berghei sporozoites", "result": 6.3, "unit": "microns"}, {"measurement": "binding interaction of MTRAP with aldolase in presence of compound", "setting": "[3]", "result": "Increased binding interaction"}, {"measurement": "enzyme inhibition on rabbit aldolase", "setting": "rabbit aldolase", "result": "no enzyme inhibition"}, {"measurement": "inhibition of P. falciparum aldolase", "setting": "[4]", "result": "inhibited"}]}
{"smiles": "CCCCn1c(N)c(C(=O)NCc2ccccc2)c2nc3ccccc3nc21", "note": "[Compound 18, 2-amino-N-benzyl-1-butyl-1H-pyrrolo[2,3-b]quinoxaline-3-carboxamide]", "values": [{"measurement": "EC90", "setting": "[1]", "result": "~30", "unit": "µM"}, {"measurement": "binding interaction of TRAP with aldolase in presence of compound", "setting": "[2]", "result": "Increased binding interaction"}, {"measurement": "viability at 250 µM", "setting": "sporozoites", "result": 93, "unit": "%"}, {"measurement": "increase in average trail size (trail radius) vs DMSO control", "setting": "P. berghei sporozoites", "result": 3.6, "unit": "microns"}, {"measurement": "binding interaction of MTRAP with aldolase in presence of compound", "setting": "[3]", "result": "Increased binding interaction"}]}
